Assay results from ChEMBL document CHEMBL1201862, “PubChem BioAssay data set” (2004).
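Protocol summary: plate cells (96-well), add compound at 5 concentrations, incubate 48 h, interpolate endpoints linearly. GI50 is the concentration that inhibits growth by half.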 Active and inactive are the calls of the source. Rule as the data show it: active = GI50 up to about 1.1 µM and inactive = higher.

Key:
Experiment in all cases: NCI-60 cell line screen, 48 h
[1] = test system: IGROV-1
[2] = test system: NCI-H23
[3] = test system: EKVX
[4] = test system: OVCAR-5
[5] = test system: NCI-H226
[6] = test system: U-251
[7] = test system: SK-MEL-2
[8] = test system: T47D
[9] = test system: SW-620
[10] = test system: OVCAR-8
[11] = test system: MOLT-4
[12] = test system: TK-10
[13] = test system: NCI/ADR-RES
[14] = test system: RPMI-8226
[15] = test system: PC-3
[16] = test system: UACC-62
[17] = test system: 786-0
[18] = test system: HCC 2998
[19] = test system: CAKI-1
[20] = test system: OVCAR-4
[21] = test system: COLO 205
[22] = test system: BT-549
[23] = test system: LOX IMVI
[24] = test system: CCRF-CEM
[25] = test system: RXF 393
[26] = test system: Malme-3M
[27] = test system: SK-OV-3
[28] = test system: SK-MEL-28
[29] = test system: HL-60
[30] = test system: HCT-15
[31] = test system: UO-31
[32] = test system: KM12
[33] = test system: A549
[34] = test system: SN12C
[35] = test system: SNB-75
[36] = test system: MDA-N
[37] = test system: NCI-H460
[38] = test system: UACC-257
[39] = test system: A498
[40] = test system: ACHN
[41] = test system: Hs-578T
[42] = test system: DU-145
[43] = test system: OVCAR-3
[44] = test system: MDA-MB-435
[45] = test system: SF-539
[46] = test system: MDA-MB-231
[47] = test system: MCF7
[48] = test system: M14
[49] = test system: HCT-116
[50] = test system: HT-29
[51] = test system: K562
[52] = test system: SNB-19
[53] = test system: HOP-62
[54] = test system: NCI-H522
[55] = test system: SF-295
[56] = test system: SK-MEL-5
[57] = test system: SF-268
[58] = test system: SR
[59] = test system: HOP-92

CCOC(=O)/C=C(\C(=O)OCC)n1ccc(=O)n(Cc2cnnn2COCCOC(C)=O)c1=O
GI50 [1]: 16.8 µM (inactive)
GI50 [2]: 17.3 µM (inactive)
GI50 [3]: 14.5 µM (inactive)
GI50 [4]: 15.6 µM (inactive)
GI50 [5]: 16.8 µM (inactive)
GI50 [6]: 16.4 µM (inactive)
GI50 [7]: 18.4 µM (inactive)
GI50 [8]: 6.11 µM (inactive)
GI50 [9]: 2.16 µM (inactive)
GI50 [10]: 12.1 µM (inactive)
GI50 [11]: 2.59 µM (inactive)
GI50 [12]: 5.64 µM (inactive)
GI50 [13]: 22.9 µM (inactive)
GI50 [14]: 8.15 µM (inactive)
GI50 [15]: 14.3 µM (inactive)
GI50 [16]: 16.1 µM (inactive)
GI50 [17]: 3.73 µM (inactive)
GI50 [18]: 17.9 µM (inactive)
GI50 [19]: 2.97 µM (inactive)
GI50 [20]: 23.9 µM (inactive)
GI50 [21]: 1.77 µM (inactive)
GI50 [22]: 8.28 µM (inactive)
GI50 [23]: 12.2 µM (inactive)
GI50 [24]: 1.61 µM (inactive)
GI50 [25]: 1.85 µM (inactive)
GI50 [26]: 2.04 µM (inactive)
GI50 [27]: 53.7 µM (inactive)
GI50 [28]: 10 µM (inactive)
GI50 [29]: 0.598 µM (active)
GI50 [30]: 7.67 µM
GI50 [31]: 16.8 µM (inactive)
GI50 [32]: 16.1 µM (inactive)
GI50 [33]: 21.6 µM (inactive)
GI50 [34]: 15.4 µM (inactive)
GI50 [35]: 16.4 µM (inactive)
GI50 [36]: 16.8 µM (inactive)
GI50 [37]: 14.2 µM (inactive)
GI50 [38]: 16.2 µM (inactive)
GI50 [39]: 23 µM (inactive)
GI50 [40]: 3.79 µM (inactive)
GI50 [41]: 20.5 µM (inactive)
GI50 [42]: 18.8 µM (inactive)
GI50 [43]: 11 µM (inactive)
GI50 [44]: 8.59 µM (inactive)
GI50 [45]: 2.36 µM (inactive)
GI50 [46]: 17.6 µM (inactive)
GI50 [47]: 6.4 µM (inactive)
GI50 [48]: 15.1 µM (inactive)
GI50 [49]: 9.25 µM (inactive)
GI50 [50]: 14.2 µM (inactive)
GI50 [51]: 3.48 µM (inactive)
GI50 [52]: > 46.7 µM (inactive)
GI50 [53]: 18.9 µM (inactive)
GI50 [54]: 1.61 µM (inactive)
GI50 [55]: 28.7 µM (inactive)
GI50 [56]: 21.9 µM (inactive)
GI50 [57]: 16.5 µM (inactive)

O=C1C(NS(=O)(=O)c2ccccc2)=C(n2ccnc2)C(=O)c2ccccc21
GI50 [1]: > 100 µM (inactive)
GI50 [2]: > 100 µM (inactive)
GI50 [3]: > 100 µM (inactive)
GI50 [4]: > 100 µM (inactive)
GI50 [5]: > 100 µM (inactive)
GI50 [6]: > 100 µM (inactive)
GI50 [7]: > 100 µM (inactive)
GI50 [8]: > 100 µM (inactive)
GI50 [9]: > 100 µM (inactive)
GI50 [10]: > 100 µM (inactive)
GI50 [11]: > 100 µM (inactive)
GI50 [12]: 24.7 µM (inactive)
GI50 [58]: > 100 µM (inactive)
GI50 [13]: > 100 µM (inactive)
GI50 [14]: > 100 µM (inactive)
GI50 [15]: > 100 µM (inactive)
GI50 [16]: > 100 µM (inactive)
GI50 [17]: > 100 µM (inactive)
GI50 [19]: > 100 µM (inactive)
GI50 [20]: > 100 µM (inactive)
GI50 [59]: > 100 µM (inactive)
GI50 [21]: > 100 µM (inactive)
GI50 [22]: > 100 µM (inactive)
GI50 [23]: > 100 µM (inactive)
GI50 [24]: > 100 µM (inactive)
GI50 [25]: > 100 µM (inactive)
GI50 [26]: 96.4 µM (inactive)
GI50 [27]: > 100 µM (inactive)
GI50 [28]: > 100 µM (inactive)
GI50 [29]: > 100 µM (inactive)
GI50 [30]: > 100 µM
GI50 [31]: > 100 µM (inactive)
GI50 [32]: > 100 µM (inactive)
GI50 [33]: > 100 µM (inactive)
GI50 [34]: > 100 µM (inactive)
GI50 [35]: 4.44 µM (inactive)
GI50 [36]: > 100 µM (inactive)
GI50 [37]: > 100 µM (inactive)
GI50 [38]: > 100 µM (inactive)
GI50 [40]: > 100 µM (inactive)
GI50 [41]: > 100 µM (inactive)
GI50 [42]: > 100 µM (inactive)
GI50 [43]: > 100 µM (inactive)
GI50 [44]: > 100 µM (inactive)
GI50 [45]: > 100 µM (inactive)
GI50 [46]: > 100 µM (inactive)
GI50 [47]: > 100 µM (inactive)
GI50 [48]: > 100 µM (inactive)
GI50 [49]: > 100 µM (inactive)
GI50 [50]: > 100 µM (inactive)
GI50 [51]: > 100 µM (inactive)
GI50 [52]: > 100 µM (inactive)
GI50 [53]: > 100 µM (inactive)
GI50 [54]: > 100 µM (inactive)
GI50 [55]: > 100 µM (inactive)
GI50 [56]: > 100 µM (inactive)
GI50 [57]: > 100 µM (inactive)
